One data set deals with NCI-H358 cells. Briefly: Cell viability assay, NCI-H358. It is filed as cell-based, human. Conditions: Homo sapiens, NCI-H358, 72 hours, Cell Counting Kit-8, read-out: G12C IC50. Here is the method:
(§1) The purpose of this cellular assay was to determine the effects of test compounds on the proliferation of human cancer cell lines NCI-H358 (ATCC-CRL5807) cells, AGS (ATCC-CRL-1739) cells, SW620 (ATCC-CCL-227) over a 3-day treatment period by quantifying the amount of NADPH present at endpoint using Cell Counting Kit-8. Cells were seeded at 5,000 cells/well (NCI-H358), 2,000 cells/well (AGS) 2,000 cells/well (SW620) in 96-well assay plates (Corning-3699) and incubated overnight. On the day of the assay, diluted compounds were then added in a final concentration of 0.5% DMSO. After 72 hours incubation, a tenth of the volume of cell counting kit 8(Dnjindo-CK04) was added into each well. Read the signal (OD450 minus OD650) using EnVision after 2 hours incubation. IC50 was determined by fitting a 4-parameter sigmoidal concentration response model.

The next data set has as its system SW620 cells. Briefly: Cell viability assay, SW620. It is filed as cell-based, human. Conditions: Homo sapiens, SW-620, SW620, 72 hours, Cell Counting Kit-8, read-out: G12V IC50. On the procedure:
as §1

In a further data set the test system is KRAS G12D in AGS cells. The data set can be described thus: pERK inhibition assay, AGS. It is filed as cell-based, human. Conditions: Homo sapiens, 4 hours incubation. Here is the method:
(§2) This assay is to measure the ability of test compounds in inhibiting the phosphorylation of ERK, the downstream signaling of KRAS G12C in NCI-H358 cells, KRAS G12D in AGS cells, and KRAS G12V in SW620. NCI-H358 (ATCC-CRL5807) cells, AGS (ATCC-CRL-1739) cells, SW620 (ATCC-CCL-227) cells were all grown and maintained using RPMI-1640 medium (Thermo Fisher Scientific) with 10% fetal bovine serum and 1% penicillin/streptomycin. On the day prior to compound addition, cells were plated in tissue culture-treated 96 well plates (Corning-3699) at a density of 30,000 cell/well, 20,000 cell/well, 30,000 cell/well for NCI-H358, AGS and SW620 respectively, and allowed for attachment overnight. Diluted compounds were then added in a final concentration of 0.5% DMSO. After 4 hours of incubation, the medium was removed, 100 μL of 4% formaldehyde was added, and the assay plates were incubated at room temperature for 20 minutes. The plates were then washed once with phosphate buffered saline (PBS), and permeabilized with 100 μL of chilled methanol for 10 minutes. Non-specific antibody binding to the plates was blocked using 50 μL 1×BSA blocking buffer (Thermo-37520, 10-fold dilution by Phosphate-Buffered Saline Tween (PBST) for at least 1 hour at room temperature. The amount of phosphor-ERK was determined using an antibody specific for phosphorylated form of ERK. Primary antibody (pERK, CST-4370, Cell Signaling Technology) was diluted 1:300 in blocking buffer, with 50 μL aliquoted to each well, and incubated overnight at 4° C. Cells were washed five times for 5 minutes with PBST. Secondary antibody (HRP-linked anti-rabbit IgG, CST-7074, Cell Signaling Technology) was diluted 1:1000 in blocking buffer, and 50 μL was added to each well and incubated 1-2 hours at room temperature. Cells were washed 5 times for 5 minutes with PBST, 100 μL TMB ELISA substrate (abcam-ab171523) were added and gently shake for 20 minutes. 50 μL stop solution (abcam-ab171529) were added, and then read the signal (OD450) by EnVision. IC50 was determined by fitting a 4-parameter sigmoidal concentration response model.

Another data set deals with KRAS G12C-BRAF complex (Homo sapiens (Human), UniProt P01116+P62937, G12C). The data set can be described thus: KRAS-BRAF with CYPA (50 nM) interaction assay (TR-FRET), G12C. It is filed as binding. The settings on record: GMPPNP loaded 6His-KRAS, GST-BRAF RBD. Here is the method:
(§3) In this example, TR-FRET was also used to measure the compound or compound-CYPA dependent disruption of the KRAS G12C-BRAF complex. This protocol was also used to measure disruption of KRAS G12D or KRAS G12V binding to BRAF by a compound of the invention, respectively. In assay buffer containing 25 mM HEPES PH=7.4 (4-(2-hydroxyethyl)-1-piperazineethanesulfonic acid, Thermo, 15630080), 0.002% Tween20, 0.1% BSA, 100 mM NaCl, 5 mM MgCl2, 10 μM GMPPNP (Guanosine 5'-[β,γ-imido]triphosphate trisodium salt hydrate, Sigma, G0635), tagless CYPA, GMPPNP loaded 6His-KRAS proteins, and GST-BRAF^RBD were mixed in a well of a 384-well assay plate at final concentrations of 50 nM, 6.25 nM and 1 nM, respectively. Compound was present in plate wells as a 16-point 3-fold dilution series starting at a final concentration of 10 μM and incubated for 3 hours. A mixture of MAb Anti-6His-XL665 (Cisbio, 61HISXLB) and Mab anti-GST-TB cryptate (Cisbio, 61GSTTLB) was then added at a final concentration of 6.67 nM and 0.21 nM, respectively, and the plate was incubated for an additional 1.5 hours. TR-FRET signal was read on a […] microplate reader (Ex320 nm, Em 665/615 nm). Compounds that facilitate disruption of the KRAS-BRAF complex were identified as those eliciting a decrease in the TR-FRET ratio relative to DMSO control wells.

In data set [1] the test system is KRAS G12C in NCI-H358 cells. Briefly: pERK inhibition assay, NCI-H358. The settings on record: Homo sapiens, 4 hours incubation. It is filed as cell-based, human. On the procedure: as §2
For data set [2], the target named is KRAS G12D binding to BRAF (Homo sapiens (Human), UniProt P01116+P62937, G12D). The data set can be described thus: KRAS-BRAF with CYPA (50 nM) interaction assay (TR-FRET), G12D. The settings on record: GMPPNP loaded 6His-KRAS, GST-BRAF RBD. Here is the method: as §3
Sequence of KRAS G12D binding to BRAF (P01116-2 other isoform, or with tags, fused parts or gaps G12D): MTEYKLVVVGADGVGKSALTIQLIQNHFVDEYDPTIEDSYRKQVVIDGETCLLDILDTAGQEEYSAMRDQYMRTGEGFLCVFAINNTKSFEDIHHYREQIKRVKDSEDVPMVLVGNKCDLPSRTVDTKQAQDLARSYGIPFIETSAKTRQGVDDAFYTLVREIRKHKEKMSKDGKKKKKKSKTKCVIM
Sequence of KRAS G12D binding to BRAF (P62937 whole entry): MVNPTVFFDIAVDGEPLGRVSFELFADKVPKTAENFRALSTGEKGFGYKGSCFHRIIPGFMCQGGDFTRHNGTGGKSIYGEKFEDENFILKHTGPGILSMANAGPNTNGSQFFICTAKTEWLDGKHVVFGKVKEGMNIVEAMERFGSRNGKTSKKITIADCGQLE
For data set [3], the target named is KRAS G12V binding to BRAF (Homo sapiens (Human), UniProt P01116+P62937, G12V). The data set can be described thus: KRAS-BRAF with CYPA (50 nM) interaction assay (TR-FRET), G12V. Conditions: GMPPNP loaded 6His-KRAS, GST-BRAF RBD. Here is the method:
as §3

The next data set relates to KRAS G12V in SW620. The data set can be described thus: pERK inhibition assay, SW620. It is filed as cell-based, human. The settings on record: Homo sapiens, SW-620, SW620 cells, 4 hours incubation. Here is the method:
as §2

A further data set has as its system AGS cells. Briefly: Cell viability assay, AGS. It is filed as cell-based, human. The settings on record: Homo sapiens, 72 hours, Cell Counting Kit-8, read-out: G12D IC50. Here is the method: as §1
Data set [4] in a line: GSH reaction rates (inherent GSH reactivity). It is filed as in vitro ADME. On the procedure: Therefore Strategy to minimize the GSH metabolism is very critical. Short T1/2 in inherent GSH reaction indicated high GSH reaction rate. Thus T1/2 in inherent GSH reaction assay was determined for the screening of candidates. Reference compounds and compounds of this invention potentially could form conjugation with GSH either through halogenated moieties substitution reaction or direct Michael addition reaction. This test was therefore performed to check GSH reactivity of listed compounds. For inherent GSH reactivity determination, compounds at 1 μM were incubated at 37° C. with and without 5 mM GSH for 0, 0.5, 1, 2, 4 and 6 h in 100 mM potassium phosphate buffer at pH 7.4. At the end of the designated time points, samples were quenched with acetonitrile containing 10 mM N-ethylmaleimide and an internal standard. Quenched samples were centrifuged, and supernatants were analyzed by LC-MS/MS for compound quantification.

Data set [5] can be described thus: Human hepatocytes stability assay. It is filed as in vitro ADME. Conditions: for CL_hep (Human): 1 μM compound, human hepatocytes 1×10^6 cells/mL; for Clearance Category: human hepatocytes. On the procedure: The hepatocyte stability assay measures the rate of disappearance of a compound from incubations with cryopreserved suspension hepatocytes from human. Positive controls, including Midazolam, Raloxifene and Dextromethorphan, are included in every experiment. Incubations consist of 1 μM tested compound and suspension of human hepatocytes (1×10^6 cells/mL) in supplemented Williams' E Medium with […] and 0.5% Penicillin-streptomycin. The hepatocyte suspension was incubated with intermittent shaking 900 rpm at 37° C., in a 5% CO2 incubator. The reaction was stopped by adding methanol containing internal standard (2 μM Tolbutamide) at 2, 10, 20, 40, 60 and 120 minutes after compound addition, depletion of the parent compound was monitored by LC-MS/MS analysis.

SMILES strings stand for the structures. pIC50: −log10 of the molar value.

Sequence of KRAS G12C-BRAF complex (P01116-2 other isoform, or with tags, fused parts or gaps G12C): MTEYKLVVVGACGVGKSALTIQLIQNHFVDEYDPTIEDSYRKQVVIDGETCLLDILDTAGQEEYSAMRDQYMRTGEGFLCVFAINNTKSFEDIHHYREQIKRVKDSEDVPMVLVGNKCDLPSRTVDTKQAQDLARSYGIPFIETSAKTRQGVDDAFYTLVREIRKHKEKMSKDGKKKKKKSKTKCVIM
Sequence of KRAS G12C-BRAF complex (P62937 whole entry): as the sequence (P62937 whole entry) above
Sequence of KRAS G12V binding to BRAF (P01116-2 other isoform, or with tags, fused parts or gaps G12V): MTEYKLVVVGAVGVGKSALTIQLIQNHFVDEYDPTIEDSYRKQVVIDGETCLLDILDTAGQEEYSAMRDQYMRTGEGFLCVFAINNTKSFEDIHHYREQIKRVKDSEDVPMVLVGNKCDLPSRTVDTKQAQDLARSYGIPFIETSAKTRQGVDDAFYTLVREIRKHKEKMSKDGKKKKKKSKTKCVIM
Sequence of KRAS G12V binding to BRAF (P62937 whole entry): as the sequence (P62937 whole entry) above

On to `CCn1c(-c2cc(N3CCN(CC(F)(F)F)CC3)cnc2[C@H](C)OC)c2c3cc(ccc31)-c1csc(n1)C[C@H](NC(=O)[C@H](C(C)C)N(C)C(=O)[C@H]1CCN(C(=O)[C@H](F)Cl)C1)C(=O)N1CCC[C@H](N1)C(=O)OCC(C)(C)C2` (atropisomer, axis not shown; (M)) [Example 26, (3S)-1-[(2R)-2-chloro-2-fluoro-acetyl]-N-[(1S)-1-[[(7S,13S)-21-ethyl-(20M)-20-[2-[(1S)-1-methoxyethyl]-5-[4-(2,2,2-trifluoroethyl)piperazin-1-yl]-3-pyridyl]-17,17-dimethyl-8,14-dioxo-15-oxa-4-thia-9,21,27,28-tetrazapentacyclo[17.5.2.12,5.19,13.022,26]octacosa-1(25),2,5(28),19,22(26),23-hexaen-7-yl]carbamoyl]-2-methyl-propyl]-N-methyl-pyrrolidine-3-carboxamide], for which the negative logarithm of the IC50 (pIC50) in the data set on NCI-H358 cells is over 9.22; in the data set with SW620 cells, 7.35; with KRAS G12D in AGS cells, 7.46; at KRAS G12C-BRAF complex, 7.44; in [1], 9.00; in data set [2], 5.57. In addition, the pIC50 is 6.70 in data set [3], 7.89 in the data set with KRAS G12V in SW620 and 6.85 with AGS cells.

Regarding `CCn1c(-c2cccnc2[C@H](C)OC)c2c3cc(ccc31)-c1cc(O)cc(c1)C[C@H](NC(=O)[C@H](C(C)C)N(C)C(=O)[C@H]1CCN(C(=O)/C=C/n3cncn3)C1)C(=O)N1CCC[C@H](N1)C(=O)OCC(C)(C)C2` (atropisomer, axis not shown; (M)) [Example 9, (3S)-N-[(1S)-1-[[(8S,14S)-22-ethyl-4-hydroxy-(21M)-21-[2-[(1S)-1-methoxyethyl]-3-pyridyl]-18,18-dimethyl-9,15-dioxo-16-oxa-10,22,28-triazapentacyclo[18.5.2.12,6.110,14.023,27]nonacosa-1(26),2,4,6(29),20,23(27),24-heptaen-8-yl]carbamoyl]-2-methyl-propyl]-N-methyl-1-[(E)-3-(1,2,4-triazol-1-yl)prop-2-enoyl]pyrrolidine-3-carboxamide], the pIC50 was 7.54 with NCI-H358 cells; 6.07 in the data set with SW620 cells; 7.42 against KRAS G12C-BRAF complex; 6.64 in data set [1]; 5.71 in data set [2]; 6.99 in [3]. For the same compound, in the data set with KRAS G12V in SW620, the pIC50 was 6.13.

For `CO[C@@H](C)c1ncc(N2CCN(C)CC2)cc1-c1c2c3cc(ccc3n1CC(F)(F)F)-c1csc(n1)C[C@H](NC(=O)[C@H](C(C)C)N1CC[C@]3(CCN(C(=O)[C@H](F)Cl)C3)C1=O)C(=O)N1CCC[C@H](N1)C(=O)OCC(C)(C)C2` [Example 23, (2S)-2-[(5S)-7-[(2R)-2-chloro-2-fluoro-acetyl]-1-oxo-2,7-diazaspiro[4.4]nonan-2-yl]-N-[(7S,13S)-(20M)-20-[2-[(1S)-1-methoxyethyl]-5-(4-methylpiperazin-1-yl)-3-pyridyl]-17,17-dimethyl-8,14-dioxo-21-(2,2,2-trifluoroethyl)-15-oxa-4-thia-9,21,27,28-tetrazapentacyclo[17.5.2.12,5.19,13.022,26]octacosa-1(25),2,5(28),19,22(26),23-hexaen-7-yl]-3-methyl-butanamide], the “Remaining at 6 hr in GSH (%)” value in data set [4] (1 μM compound, 5 mM GSH, 37° C., pH 7.4, 6 hr) was 95%. For the same compound, in data set [4] (1 μM compound, 5 mM GSH, 37° C., potassium phosphate buffer pH 7.4), the “T1/2(hour) in GSH” value is given as “stable (If % depletion after 6 hour incubation is less than 20%, compounds were reported as stable)”. Also, in data set [5], the “CL_hep (Human)” value worked out at 7.9 mL/min/kg. For the same compound, the “Clearance Category” value in [5] is listed as “medium (16.24<CL_hep (mL/min/kg)>6.96 is medium clearance)”. Also, the pIC50 with NCI-H358 cells was over 9.22; in the data set on SW620 cells, 7.82; with KRAS G12D in AGS cells it was 7.74; in data set [1], 8.70; in the data set with KRAS G12V in SW620, 8.10; with AGS cells, 5.47.

`CCn1c(-c2cccnc2COC)c2c3cc(ccc31)-c1cc(O)cc(c1)C[C@H](NC(=O)[C@H](C(C)C)N(C)C(=O)C1CN(C(=O)[C@H](F)Cl)C1)C(=O)N1CCC[C@H](N1)C(=O)OCC(C)(C)C2` [RM461-A]: in data set [4] (6 h, 1 μM, pH 7.4), the “Remaining at 6 hr in GSH (%)” value turned out to be 100%. The “CL_hep (Human)” value in [5] worked out at 5.5 mL/min/kg. Besides, the “Clearance Category” value in [5] was “low (CL_hep (mL/min/kg)<6.96 is low clearance)”. Also, the negative-log IC50 (pIC50) in the data set with NCI-H358 cells is 7.35; in the data set on SW620 cells it was 5.16; in the data set with KRAS G12D in AGS cells, under 5.00; in [1], 7.31; with KRAS G12V in SW620 it was 5.15; with AGS cells it was 5.10.
